{"source": "paper PMC4811675", "about": "(Cancer cell, 2016)", "key": {"c-Myc [1]": {"system": "c-Myc", "assay": "c-Myc transcription, turnover and NEDD4 expression in MCF-7 cells", "assay_type": "cell-based, human"}, "[2]": {"system": "NCI-60 panel of human cancer cell lines", "assay": "NCI-60 cell line screening", "assay_type": "cell-based", "settings": "single dose of 10 µM, 24 hr"}, "SIRT3": {"target": "T1, SIRT3 (Homo sapiens, UniProt Q9NTG7)", "T1 sequence (Q9NTG7 1-399)": "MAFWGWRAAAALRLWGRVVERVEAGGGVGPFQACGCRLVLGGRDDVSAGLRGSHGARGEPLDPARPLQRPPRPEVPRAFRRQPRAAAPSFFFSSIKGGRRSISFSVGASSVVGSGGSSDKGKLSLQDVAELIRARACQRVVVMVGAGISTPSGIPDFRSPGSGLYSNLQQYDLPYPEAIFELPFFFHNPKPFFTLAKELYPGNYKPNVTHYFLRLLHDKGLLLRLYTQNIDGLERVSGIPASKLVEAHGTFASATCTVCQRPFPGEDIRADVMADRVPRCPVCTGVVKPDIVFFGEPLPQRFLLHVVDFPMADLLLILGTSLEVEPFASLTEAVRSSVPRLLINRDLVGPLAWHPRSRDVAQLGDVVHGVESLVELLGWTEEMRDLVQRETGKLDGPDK", "assay": "HPLC-based sirtuin inhibition assay, SIRT3", "assay_type": "biochemical", "settings": "at 200 µM"}, "[3]": {"system": "MCF-7, MDA-MB-468 and MDA-MB-231", "assay": "Cell viability assay", "assay_type": "cell-based, human", "settings": "72 hr, up to 50 µM"}, "MMTV-PyMT mammary tumors": {"system": "MMTV-PyMT mammary tumors", "assay": "MMTV-PyMT mammary tumor model", "assay_type": "in vivo, mice"}, "[4]": {"assay": "Detection of TM in mouse serum, fat and tumor tissues by mass spectrometry", "assay_type": "in vivo, mice", "settings": "IP administration"}, "BT-549": {"system": "BT-549", "assay": "NCI-60 cell line screening, BT-549", "assay_type": "cell-based, human", "settings": "10 µM TM"}, "MCF-7 cells [5]": {"system": "MCF-7 cells", "assay": "Soft agar colony formation assay", "assay_type": "cell-based, human", "settings": "25 µM in ethanol"}, "c-Myc [6]": {"system": "c-Myc", "assay": "c-Myc protein level in BT-549 cells", "assay_type": "cell-based, human", "settings": "25 µM"}, "c-Myc [7]": {"system": "c-Myc", "assay": "c-Myc protein level in MCF-7 cells", "assay_type": "cell-based, human", "settings": "25 µM"}, "MCF-10A and HME1": {"system": "MCF-10A and HME1", "assay": "Cell viability assay", "assay_type": "cell-based, human", "settings": "72 hr, compared with malignant cells"}, "[8]": {"system": "MDA-MB-231 human breast cancer xenograft", "assay": "MDA-MB-231 xenograft model in immunocompromised mice", "assay_type": "in vivo"}, "MCF-7 cells [9]": {"system": "MCF-7 cells", "assay": "Cell cycle distribution and β-galactosidase senescence staining in MCF-7 cells", "assay_type": "cell-based, human", "settings": "25 µM"}, "MDA-MB-231 cells": {"system": "MDA-MB-231 cells", "assay": "Cell viability assay", "assay_type": "cell-based, human", "settings": "read-out: IC50 cell viability; 72 hr"}, "[10]": {"settings": "30 days treatment, compared with vehicle"}, "[11]": {"settings": "30 days treatment, relative to vehicle"}}, "note": "Where a SMILES comes first, the peptide text is derived from it. The star is where a group is joined. Cbz = O=C(OCc1ccccc1)*"}
{"smiles": "CC(C)C[C@@H](C=O)NC(=O)[C@H](CC(C)C)NC(=O)[C@H](CC(C)C)NC(=O)OCc1ccccc1", "note": "[MG132, reference compound] (Cbz-Leu-Leu-Leu-aldehyde)", "values": [{"measurement": "effect on TM-induced down-regulation of c-Myc", "setting": "c-Myc [1]; MCF-7 cells, TM 25 µM 4 hr then MG132 10 µM 2 hr", "result": "prevented the TM-induced down-regulation of c-Myc"}]}
{"smiles": "CCCCCCCCCCCCCC(=S)NCCCCC(NC(=O)OCc1ccccc1)C(=O)Nc1ccccc1", "note": "(centres unmarked) [TM]", "values": [{"measurement": "cell lines inhibited by >50%", "setting": "[2]", "result": "36/56"}, {"measurement": "inhibition of SIRT3", "setting": "SIRT3", "result": "did not inhibit"}, {"measurement": "inhibition of cell viability", "setting": "[3]", "result": "greater inhibition of cell viability"}, {"measurement": "acetyl-α-tubulin level in tumors", "setting": "MMTV-PyMT mammary tumors; [10]", "result": "modest but statistically significant increase"}, {"measurement": "proliferation of tumor cells by Ki-67 staining", "setting": "MMTV-PyMT mammary tumors; [11]", "result": "significant decrease in proliferation of tumor cells"}, {"measurement": "mean latency to tumor onset", "setting": "MMTV-PyMT mammary tumors; daily IP 1.5 mg TM in 50 µL DMSO, control group 48 days", "result": 54, "unit": "days"}, {"measurement": "tumor-free survival", "setting": "MMTV-PyMT mammary tumors; daily IP 1.5 mg TM, compared with vehicle", "result": "significantly prolonged"}, {"measurement": "TM content in abdominal fat", "setting": "[4]", "result": "significant amount of TM accumulated in abdominal fat"}, {"measurement": "TM content in tumors", "setting": "[4]", "result": "reached the tumors"}, {"measurement": "viability", "setting": "BT-549", "result": "~100", "unit": "%"}, {"measurement": "anchorage-independent growth (soft agar colony formation)", "setting": "MCF-7 cells [5]", "result": "significantly inhibited"}, {"measurement": "c-Myc protein abundance", "setting": "c-Myc [6]", "result": "did not have a significant effect"}, {"measurement": "c-Myc protein level", "setting": "c-Myc [7]", "result": "decreased c-Myc protein level in a time-dependent manner"}, {"measurement": "sensitivity of cell viability to TM", "setting": "MCF-10A and HME1", "result": "much less sensitive"}, {"measurement": "NEDD4 expression", "setting": "c-Myc [1]; MCF-7 and K562 cells, 25 µM TM", "result": "up-regulated by TM at the transcriptional level"}, {"measurement": "half-life of c-Myc", "setting": "c-Myc [1]; MCF-7 cells, 25 µM 4 hr then CHX", "result": "shortened"}, {"measurement": "c-Myc mRNA level", "setting": "c-Myc [1]; MCF-7 cells, 25 µM, RT-PCR", "result": "not affected"}, {"measurement": "body weight", "setting": "[8]; 1.5 mg TM daily, 30 days", "result": "no significant weight loss"}, {"measurement": "toxicity in mice", "setting": "[8]; 1.5 mg TM daily, 30 days", "result": "did not cause significant toxicity"}, {"measurement": "tumor growth", "setting": "[8]; 1.5 mg TM in 50 µL DMSO daily, IT or IP, 30 days, versus vehicle", "result": "significantly inhibited tumor growth"}, {"measurement": "acetyl-α-tubulin level in xenograft tumors", "setting": "[8]; [10]", "result": "moderately but statistically significantly increased"}, {"measurement": "Ki-67+ cells in tumors", "setting": "[8]; [11]", "result": "significant decrease in Ki-67^+ cells"}, {"measurement": "cell cycle distribution", "setting": "MCF-7 cells [9]; 0-72 hr, flow cytometry", "result": "pronounced increase in cells arrested in G0/G1 phase"}, {"measurement": "cellular senescence by β-galactosidase staining", "setting": "MCF-7 cells [9]; 5 days", "result": "significant cellular senescence"}, {"measurement": "IC50", "setting": "MDA-MB-231 cells", "result": 34, "unit": "µM"}]}
